The text below walks through data of ChEMBL document CHEMBL4316587, “Identification of 3-(benzazol-2-yl)quinoxaline derivatives as potent anticancer compounds: Privileged structure-based design, synthesis, and bioactive evaluation in vitro and in vivo” (Eur J Med Chem, 2019).

Each structure is given as a SMILES string. Calls of active or inactive are those of the source. The rule behind the calls is not given here.

Test [1] concerns MGC-803. Kind of test: Antiproliferative activity against human MGC803 cells after 48 hrs by MTT assay. The class given is functional, cell-based. As to conditions: MGC-803, 48 h.
In test [2] the test system is T-24. Kind of test: Antiproliferative activity against human T24 cells after 48 hrs by MTT assay. It is filed as functional, cell-based. Particulars: T-24, 48 h. (Tetrazolium dyes change colour on reduction, which living cells bring about.)
The test system of test [3] is WI-38. Kind of test: Antiproliferative activity against human WI38 cells after 48 hrs by MTT assay. It is filed as cell-based. As to conditions: WI-38, 48 h.
The subject of test [4] is DNA. Kind of test: Binding affinity to Escherichia coli supercoiled pBR322 DNA assessed as DNA intercalation at 50 uM after 1 hr by ethidium bromide staining-based agarose gel electrophoresis analysis. It is filed as nucleic-acid assay.
Test [5] concerns the target T1, DNA topoisomerase 1 (Homo sapiens) (UniProt P11387).
T1 sequence (whole entry): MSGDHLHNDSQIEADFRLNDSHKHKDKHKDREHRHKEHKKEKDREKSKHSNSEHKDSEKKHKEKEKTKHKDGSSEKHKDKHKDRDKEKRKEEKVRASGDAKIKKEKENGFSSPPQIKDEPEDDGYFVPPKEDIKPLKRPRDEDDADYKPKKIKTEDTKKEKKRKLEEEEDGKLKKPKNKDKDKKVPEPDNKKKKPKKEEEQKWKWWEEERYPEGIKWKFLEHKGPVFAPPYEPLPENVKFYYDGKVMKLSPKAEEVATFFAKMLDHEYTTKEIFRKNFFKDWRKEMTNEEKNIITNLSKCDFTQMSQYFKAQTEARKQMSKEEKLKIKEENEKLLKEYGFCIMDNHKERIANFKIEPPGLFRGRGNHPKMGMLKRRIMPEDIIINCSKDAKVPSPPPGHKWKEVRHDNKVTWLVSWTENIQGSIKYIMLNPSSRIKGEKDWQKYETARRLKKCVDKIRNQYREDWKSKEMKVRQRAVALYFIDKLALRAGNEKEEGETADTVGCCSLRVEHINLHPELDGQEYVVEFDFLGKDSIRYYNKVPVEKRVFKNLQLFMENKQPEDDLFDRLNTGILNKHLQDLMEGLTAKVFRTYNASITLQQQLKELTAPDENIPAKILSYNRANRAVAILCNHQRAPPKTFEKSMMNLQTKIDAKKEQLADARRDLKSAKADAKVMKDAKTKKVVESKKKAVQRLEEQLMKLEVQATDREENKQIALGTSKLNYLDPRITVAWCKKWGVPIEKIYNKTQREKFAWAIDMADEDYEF
Description: Inhibition of topoisomerase 1 (unknown origin) using pBR322 DNA as substrate assessed as reduction in pBR322 DNA unwinding at 50 uM after 30 mins by ethidium bromide staining-based agarose gel electrophoresis analysis.

Test [6] relates to HeLa. Description: cells. Particulars: Homo sapiens, 48 h.
Test [7] relates to A549. Description: cells. Particulars: Homo sapiens, A549, 48 h.
Test [8] deals with T1, DNA topoisomerase 1 (Homo sapiens). Kind of test: Inhibition of topoisomerase 1 (unknown origin) at 50 uM using pBR322 DNA as substrate preincubated for 30 mins followed by substrate addition and measured after 30 mins by ethidium bromide staining-based agarose gel electrophoresis analysis.
In test [9] the test system is HepG2. Kind of test: Antiproliferative activity against human HepG2 cells after 48 hrs by MTT assay. The class given is functional, cell-based. Particulars: HepG2, 48 h.
The test system of test [10] is MGC-803. Kind of test: Antitumor activity against human MGC803 cells xenografted in BALB/C mouse assessed as tumor growth inhibition at 6 mg/kg, ip dosed every other day for 16 days relative to control. It is filed as functional. As to conditions: MGC-803, ip, read-out: TGI. For orientation: In xenograft studies the graft and the host belong to different species.

For orientation: IC50 means the concentration needed to halve the response being measured. As for `CCN(CC)CCCNc1nc2ccccc2nc1-c1nc2c(ccc3ccccc32)o1`, the half-inhibitory concentration (IC50) in test [1] is 11.5 µM; in test [2], 8 µM; in test [3], 14.7 µM; in [6], 10.8 µM; in test [7], 11.3 µM; in test [9], 12.7 µM. For the same compound, the outcome in [4] was inactive. The inhibition entry in test [5] and in test [8] was “inactive” throughout.

Regarding `c1ccc2nc(-c3nc4ccccc4o3)c(NCCN3CCOCC3)nc2c1`, the IC50 in [1], in [2], in [3], in test [6], in test [7] and in test [9] was greater than 100 µM in each case.

Take `CC[C@@]1(O)C(=O)OCc2c1cc1n(c2=O)Cc2cc3ccccc3nc2-1` [CAMPTOTHECIN]: the half-maximal inhibitory concentration (IC50) in [1] amounted to 2.96 µM; in [2], 6.8 µM; in [3], 8.37 µM; in [6] it was 6.51 µM; in [7], 4.43 µM; in test [9] it was 4.79 µM. Moreover, the inhibition in vivo at 6 mg/kg in [10] is 51.5%.

For `c1ccc2nc(-c3nc4ccccc4s3)c(NCCN3CCOCC3)nc2c1`, the IC50 in test [1], in [2], in [3], in [6], in test [7] and in [9] was greater than 100 µM each time.

For the compound `CN(C)CCCNc1nc2ccccc2nc1-c1nc2c(ccc3ccccc32)o1`, the 50% inhibitory concentration (IC50) in test [1] is 11.3 µM; in [2], 5.75 µM; in test [3] it was 16.4 µM; in test [6] it was 10.5 µM; in test [7] it was 4.66 µM; in test [9], 10.8 µM. Moreover, the outcome in test [4] was inactive. Besides, the inhibition result in test [5] and in test [8] was “inactive” in each case.

On to `c1ccc2nc(-c3nc4ccccc4[nH]3)c(NCCCN3CCOCC3)nc2c1`, for which the IC50 in test [1], in [2], in test [3], in [6], in test [7] and in [9] was greater than 100 µM throughout.

As to `c1ccc2nc(-c3nc4ccccc4s3)c(NCCCN3CCOCC3)nc2c1`, the concentration for half-maximal inhibition (IC50) in [1], in [2], in test [3], in test [6], in [7] and in test [9] was greater than 100 µM throughout.

`c1ccc2nc(-c3nc4ccccc4o3)c(NCCCN3CCOCC3)nc2c1`: the 50% inhibitory concentration (IC50) in [1], in [2], in test [3], in test [6], in test [7] and in test [9] was greater than 100 µM throughout.

For the compound `c1ccc2nc(-c3nc4ccccc4[nH]3)c(NCCN3CCOCC3)nc2c1`, the half-inhibitory concentration (IC50) in [1], in test [2], in [3], in test [6], in [7] and in test [9] was greater than 100 µM in each case.
